According to patent publication US7485641B2, “Substituted 3-amino-pyrrolidino-4-lactams” (Pfizer, Inc., priority 2006, dated 2009):
Where a name gives a salt, the structure may show the parent alone.

target: T1, DPP-IV (Homo sapiens, UniProt P27487); assay: In vitro assay for dipeptidyl peptidase inhibition; format: biochemical; conditions: Examples 156-162; n-value in brackets; IC50's or percent inhibition at 300 nM; read-out: DPP-IV inhibition
T1 construct: purchased Enzyme Systems Products SPE-01
T1 sequence (P27487 whole entry, species assumed): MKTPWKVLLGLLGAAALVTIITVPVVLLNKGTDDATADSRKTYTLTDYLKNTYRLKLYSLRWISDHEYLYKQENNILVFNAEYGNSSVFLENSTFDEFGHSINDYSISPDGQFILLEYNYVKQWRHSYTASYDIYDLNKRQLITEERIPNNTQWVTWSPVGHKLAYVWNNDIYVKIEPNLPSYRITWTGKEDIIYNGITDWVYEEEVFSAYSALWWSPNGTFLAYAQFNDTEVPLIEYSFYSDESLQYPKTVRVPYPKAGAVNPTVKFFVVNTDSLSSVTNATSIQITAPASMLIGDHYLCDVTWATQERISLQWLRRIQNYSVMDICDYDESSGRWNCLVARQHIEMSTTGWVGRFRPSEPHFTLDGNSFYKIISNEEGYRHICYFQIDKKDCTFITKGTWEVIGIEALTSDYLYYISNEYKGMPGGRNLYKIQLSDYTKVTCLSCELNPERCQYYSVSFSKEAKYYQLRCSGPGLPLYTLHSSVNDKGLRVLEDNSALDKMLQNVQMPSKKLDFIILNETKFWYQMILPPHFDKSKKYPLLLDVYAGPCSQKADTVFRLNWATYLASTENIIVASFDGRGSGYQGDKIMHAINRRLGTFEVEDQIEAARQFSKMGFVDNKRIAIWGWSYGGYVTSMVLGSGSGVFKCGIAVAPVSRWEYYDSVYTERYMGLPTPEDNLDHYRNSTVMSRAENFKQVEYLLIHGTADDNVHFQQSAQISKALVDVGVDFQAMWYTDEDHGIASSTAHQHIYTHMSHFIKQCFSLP

Question: `N[C@H]1CN(C(=O)c2cc3cc(Cl)ccc3[nH]2)C[C@@H]1N1CCCCC1=O` [Example 161, 1-[(3S,4S)-4-Amino-1-(5-chloro-1H-indole-2-carbonyl)-pyrrolidin-3-yl]-piperidin-2-onehydrochloride] was tested. Which IC50 did it give?
Answer: 1160 nM

same assay, conditions: at 300 nM; n-value given in brackets

Question: `CC(Oc1cc(N2C[C@H](N)[C@@H](N3CCCCC3=O)C2)ncn1)C(F)(F)F.O=C(O)C(F)(F)F` (stereo partly drawn) [Example 93, 1-((3S,4S)-4-Amino-1-(6-(1,1,1-trifluoropropan-2-yloxy)pyrimidin-4-yl)pyrrolidin-3-yl)piperidin-2-onetrifluoroacetate] was tested. Which “DPP-IV Percent Inhibition at 300 nM” value did it give?
Answer: 13.8%(4)

Question: Which “DPP-IV Percent Inhibition at 300 nM” value does the source give for `CCOc1ncc2c(n1)CCN(c1ncnc(N3C[C@H](N)[C@@H](N4CCCCC4=O)C3)n1)C2.O=C(O)C(F)(F)F` [Example 72, 1-((3S,4S)-4-Amino-1-(4-(2-ethoxy-7,8-dihydropyrido[4,3-d]pyrimidin-6(5H)-yl)-1,3,5-triazin-2-yl)pyrrolidin-3-yl)piperidin-2-onetrifluoroacetate] here?
Answer: 13.1%(4)

Question: For `N[C@H]1CN(c2ncnc(N3CC(Oc4ccc(F)c(F)c4)C3)n2)C[C@@H]1N1CCCCC1=O.O=C(O)C(F)(F)F` [Example 49, 1-((3S,4S)-4-Amino-1-(4-(3-(3,4-difluorophenoxy)azetidin-1-yl)-1,3,5-triazin-2-yl)pyrrolidin-3-yl)piperidin-2-onetrifluoroacetate], which “DPP-IV Percent Inhibition at 300 nM” value is on record?
Answer: 19.6%(4)

same assay, conditions: at 300 nM; n-value given in brackets; read-out: DPP-IV Percent Inhibition at 300 nM

Question: `CC1(C)CN(c2ncnc(N3C[C@H](N)[C@@H](N4CCCCC4=O)C3)n2)CC1(C)C` [Example 46, 1-((3S,4S)-4-amino-1-(4-(3,3,4,4-tetramethylpyrrolidin-1-yl)-1,3,5-triazin-2-yl)pyrrolidin-3-yl)piperidin-2-one] was tested. Which inhibition at 0.3 µM did it give?
Answer: 6.8%

Question: How did the inhibition at 0.3 µM turn out when `N[C@H]1CN(c2ncnc3cc(OS(=O)(=O)c4ccc(F)c(F)c4)ccc23)C[C@@H]1N1CCCCC1=O` [Example 144, 4-((3S,4S)-3-amino-4-(2-oxopiperidin-1-yl)pyrrolidin-1-yl)quinazolin-7-yl 3,4-difluorobenzenesulfonate] was run?
Answer: 41%

same assay, conditions: n-value given in brackets; read-out: DPP-IV IC50

Question: With `N#Cc1ccccc1OC1CCN(c2ncnc(N3C[C@H](N)[C@@H](N4CCCCC4=O)C3)n2)CC1` [Example 37, 2-(1-(4-((3S,4S)-3-Amino-4-(2-oxopiperidin-1-yl)pyrrolidin-1-yl)-1,3,5-triazin-2-yl)piperidin-4-yloxy)benzonitriletrifluoroacetate] as the molecule, how does the IC50 read?
Answer: 109 nM

Question: Which IC50 does the source give for `COc1ccc2c(N3C[C@H](N)[C@@H](N4CCCCC4=O)C3)nncc2c1` [Example 146, 1-((3S,4S)-4-amino-1-(6-methoxyphthalazin-1-yl)pyrrolidin-3-yl)piperidin-2-one] here?
Answer: 46.2 nM

Question: How did the IC50 turn out when `N[C@H]1CN(c2ncnc(N3Cc4ccccc4C3)n2)C[C@@H]1N1CC(F)(F)CCC1=O` [Example 50, 1-{(3S,4S)-4-amino-1-[4-(1,3-dihydro-isoindol-2-yl)-[1,3,5]triazin-2-yl]-pyrrolidin-3-yl}-5,5-difluoro-piperidin-2-one] was run?
Answer: 19.2 nM

Question: How did the IC50 turn out when “1-((3S,4S)-4-Amino-1-(6-(pyrrolidin-1-yl)pyrimidin-4-yl)pyrrolidin-3-yl)pyrrolidin-2-one(dihydrochloride) [Example 31]” was run?
Answer: 483 nM

Question: How did the IC50 turn out when `N[C@H]1CN(c2ncnc3ccc(Cl)cc23)C[C@@H]1N1CCCCC1=O` [Example 104, 1-[(3S,4S)-4-Amino-1-(6-chloro-quinazolin-4-yl)-pyrrolidin-3-yl]-piperidin-2-one hydrochloride] was run?
Answer: 132 nM

Question: For `N[C@H]1CN(c2cc(N3CC(F)C3)ncn2)C[C@@H]1N1CCCC1=O` [Example 48, 1-((3S,4S)-4-Amino-1-(6-(3-fluoroazetidin-1-yl)pyrimidin-4-yl)pyrrolidin-3-yl)pyrrolidin-2-onedihydrochloride], which IC50 is on record?
Answer: 1740 nM

Question: With `N[C@H]1CN(c2ncnc3cc(Oc4ccc(C(F)(F)F)cn4)ccc23)C[C@@H]1N1CCCCC1=O` [Example 127, 1-((3S,4S)-4-amino-1-(7-(5-(trifluoromethyl)pyridin-2-yloxy)quinazolin-4-yl)pyrrolidin-3-yl)piperidin-2-one] as the molecule, how does the IC50 read?
Answer: 137 nM

Question: How did the IC50 turn out when `CC(=O)N[C@H]1CCN(c2ncnc(N3C[C@H](N)[C@@H](N4CCCCC4=O)C3)n2)C1` [Example 41, N-((S)-1-{4-[(3S,4S)-3-Amino-4-(2-oxo-piperidin-1-yl)-pyrrolidin-1-yl]-[1,3,5]triazin-2-yl}-pyrrolidin-3-yl)-acetamidetrifluoroacetate] was run?
Answer: 90 nM

Question: `CO[C@H]1CCN(c2ncnc(N3C[C@H](N)[C@@H](N4CCCCC4=O)C3)n2)C1` [Example 40, 1-((3S,4S)-4-Amino-1-(4-((S)-3-methoxypyrrolidin-1-yl)-1,3,5-triazin-2-yl)pyrrolidin-3-yl)piperidin-2-onetrifluoroacetate] was tested. Which IC50 did it give?
Answer: 566 nM

Question: Which IC50 does the source give for `CS(=O)(=O)c1ccc(S(=O)(=O)Oc2ccc3c(N4C[C@H](N)[C@@H](N5CCCCC5=O)C4)ncnc3c2)cc1` [Example 141, 4-((3S,4S)-3-amino-4-(2-oxopiperidin-1-yl)pyrrolidin-1-yl)quinazolin-7-yl 4-(methylsulfonyl)benzenesulfonate] here?
Answer: 278 nM

Question: For `COc1ccc(Oc2ccc3c(N4C[C@H](N)[C@@H](N5CCCCC5=O)C4)ncnc3c2)cc1` [Example 129, 1-((3S,4S)-4-amino-1-(7-(4-methoxyphenoxy)quinazolin-4-yl)pyrrolidin-3-yl)piperidin-2-one], which IC50 is on record?
Answer: 61.5 nM

Question: `N[C@H]1CN(c2cc(N3CCc4nocc4C3)nc(C(F)(F)F)n2)C[C@@H]1N1CC(F)(F)CCC1=O` [Example 77, 1-{(3S,4S)-4-amino-1-[6-(6,7-dihydro-4H-isoxazolo[4,3-c]pyridin-5-yl)-2-trifluoromethyl-pyrimidin-4-yl]-pyrrolidin-3-yl}-5,5-difluoro-piperidin-2-one] was tested. Which IC50 did it give?
Answer: 33.5 nM

Question: For `N[C@H]1CN(c2ncnc3cc(Cl)ccc23)C[C@@H]1N1CCCCC1=O` [Example 102, 1-[(3S,4S)-4-Amino-1-(7-chloro-quinazolin-4-yl)-pyrrolidin-3-yl]-piperidin-2-one hydrochloride], which IC50 is on record?
Answer: 61.4 nM

Question: Which IC50 does the source give for `CC(C)Oc1ccc2c(N3C[C@H](N)[C@@H](N4CCCCC4=O)C3)ncnc2c1` [Example 115, 1-((3S,4S)-4-amino-1-(7-isopropoxyquinazolin-4-yl)pyrrolidin-3-yl)piperidin-2-one] here?
Answer: 29.7 nM

Question: Which IC50 does the source give for `COc1cc2c(cc1OC)CN(c1cc(N3C[C@H](N)[C@@H](N4CCCC4=O)C3)ncn1)CC2` [Example 60, 1-((3S,4S)-4-Amino-1-(6-(3,4-dihydro-6,7-dimethoxyisoquinolin-2(1H)-yl)pyrimidin-4-yl)pyrrolidin-3-yl)pyrrolidin-2-onehydrochloride] here?
Answer: 1260 nM

Question: `N[C@H]1CN(c2ncnc3cc(Oc4ccc(OC(F)(F)F)cc4)ccc23)C[C@@H]1N1CCCCC1=O` [Example 133, 1-((3S,4S)-4-amino-1-(7-(4-(trifluoromethoxy)phenoxy)quinazolin-4-yl)pyrrolidin-3-yl)piperidin-2-one] was tested. Which IC50 did it give?
Answer: 200 nM

Question: `CCCc1nc(N2C[C@H](N)[C@@H](N3CCCCC3=O)C2)cc(N2CCC(F)(F)C2)n1` [Example 18, 1-((3S,4S)-4-amino-1-(6-(3,3-difluoropyrrolidin-1-yl)-2-propylpyrimidin-4-yl)pyrrolidin-3-yl)piperidin-2-oneformate] was tested. Which IC50 did it give?
Answer: 43.3 nM

Question: Which IC50 does the source give for `N[C@H]1CN(C(=O)c2cc3cc(Cl)ccc3o2)C[C@@H]1N1CC(F)(F)CCC1=O` [Example 153, 1-((3S,4S)-4-amino-1-(5-chlorobenzofuran-2-carbonyl)pyrrolidin-3-yl)-5,5-difluoropiperidin-2-one] here?
Answer: 78.6 nM

Question: `N[C@H]1CN(c2ncnc3[nH]cnc23)C[C@@H]1N1CCCCC1=O` [Example 148, 1-[(3S,4S)-4-Amino-1-(9H-purin-6-yl)-pyrrolidin-3-yl]-piperidin-2-one hydrochloride] was tested. Which IC50 did it give?
Answer: 415 nM

Question: For “N-((R)-1-{4-[(3S,4S)-3-Amino-4-(2-oxo-piperidin-1-yl)-pyrrolidin-1-yl]-[1,3,5]triazin-2-yl}-pyrrolidin-3-yl)-acetamidetrifluoracetate [Example 43]”, which IC50 is on record?
Answer: 227 nM

Question: `N[C@H]1CN(c2cc(N3CCc4sccc4C3)ncn2)C[C@@H]1N1CCCC1=O` [Example 65, 1-((3S,4S)-4-Amino-1-(6-(6,7-dihydrothieno[3,2-c]pyridin-5(4H)-yl)pyrimidin-4-yl)pyrrolidin-3-yl)pyrrolidin-2-onehydrochloride] was tested. Which IC50 did it give?
Answer: 547 nM

Question: `N[C@H]1CN(c2cc(N3CCC(F)(F)C3)nc(C3CC3)n2)C[C@@H]1N1CCCCC1=O` [Example 17, 1-((3S,4S)-4-amino-1-(2-cyclopropyl-6-(3,3-difluoropyrrolidin-1-yl)pyrimidin-4-yl)pyrrolidin-3-yl)piperidin-2-one] was tested. Which IC50 did it give?
Answer: 109 nM

Question: How did the IC50 turn out when `N[C@H]1CN(c2cc(N3CCc4nc[nH]c4C3)ncn2)C[C@@H]1N1CCCC1=O` [Example 64, 1-((3S,4S)-4-Amino-1-(6-(6,7-dihydro-3H-imidazo[4,5-c]pyridin-5(4H)-yl)pyrimidin-4-yl)pyrrolidin-3-yl)pyrrolidin-2-onedihydrochloride] was run?
Answer: 2480 nM

Question: `N[C@H]1CN(c2cc(-c3ccccc3)ncn2)C[C@@H]1N1CCCCC1=O` [Example 7, 1-((3S,4S)-4-Amino-1-(6-phenylpyrimidin-4-yl)pyrrolidin-3-yl)piperidin-2-one hydrochloride] was tested. Which IC50 did it give?
Answer: 47.4 nM

Question: For `N[C@H]1CN(c2cc(N3CCc4ccccc4C3)ncn2)C[C@@H]1N1CCCC1=O` [Example 57, 1-((3S,4S)-4-Amino-1-(6-(3,4-dihydroisoquinolin-2(1H)-yl)pyrimidin-4-yl)pyrrolidin-3-yl)pyrrolidin-2-onehydrochloride], which IC50 is on record?
Answer: 317 nM

Question: Which IC50 does the source give for `N[C@H]1CN(c2ncnc(N3CCS(=O)(=O)CC3)n2)C[C@@H]1N1CCCCC1=O` [Example 68, 1-{(3S,4S)-4-Amino-1-[4-(1,1-dioxo-6-thiomorpholin-4-yl)-[1,3,5]triazin-2-yl]-pyrrolidin-3-yl}-piperidin-2-onetrifluoroacetate] here?
Answer: 141 nM

Question: For `CCC[C@H](C)Oc1cc(N2C[C@H](N)[C@@H](N3CCCCC3=O)C2)ncn1` [Example 90, 1-((3S,4S)-4-Amino-1-(6-((S)-pentan-2-yloxy)pyrimidin-4-yl)pyrrolidin-3-yl)piperidin-2-onetrifluoroacetate], which IC50 is on record?
Answer: 1030 nM
